Data published in PubChem BioAssay AID179 (DTP/NCI, 2004).
Several values for one entry are separate records, joined by “and”; a condition that tells them apart may be missing. Equal entries are not always repeated. Activity calls are given as the source filed them.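 How the source made its calls: active means compounds giving half or more protection of infected cells from virus-caused growth loss, again on retest; inactive means the rest.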 Where a SMILES comes first, the peptide text is derived from it. The star is where a group is joined. Boc = CC(C)(C)OC(=O)*; OBn = c1ccc(CO*)cc1; Bn = c1ccc(C*)cc1

System: CEM cells HIV-1 protection, formazan growth assay
Experiment: NCI AIDS Antiviral Assay
Conditions: for IC50: measured here: growth of uninfected CEM cells
How it was run: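 Soluble formazan readout of cell growth; CEM cells ± HIV-1; 5 drug concs. ≥50% protection → retest; ≥50% again = moderately active; reproducible 100% = confirmed active.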

Cc1ccc(N=C2C(c3ccccc3)=C(SC3=C(c4ccccc4)C(=Nc4ccc(C)cc4)c4ccccc43)c3ccccc32)cc1
EC50: > 200 µM | IC50: 174 µM

Cn1c2ccccc2n2c(=O)c3cc([N+](=O)[O-])ccc3c(C#N)c12
EC50: > 100 µM | IC50: > 100 µM

Fc1ccc(N2C(=S)SC(=Nc3ccccc3)C2=Nc2ccccc2)cc1
EC50: > 200 µM | IC50: 23.4 µM

COc1cc(-c2nc(SC)nc3c2CCc2ccccc2-3)cc(OC)c1OC
EC50: > 200 µM | IC50: > 200 µM

N#C/C(=C\c1cc(Cl)cc(Cl)c1)c1ccccn1
EC50: > 200 µM | IC50: 8.91 µM

O=C1C/C(=C\O)C(=O)c2ccccc2N1
EC50: 0.186 µM | IC50: > 200 µM

Cc1c(CN2CCN(C)CC2)c(O)c2c(=O)c3c(O)c(CN4CCN(C)CC4)c(O)c4c5c(O)c(CN6CCN(C)CC6)c(O)c6c(=O)c7c(O)c(CN8CCN(C)CC8)c(C)c8c1c2c(c34)c(c78)c65
EC50: > 10.2 µM | IC50: > 10.2 µM

NCCN1CC2CCC(CC2)C1
EC50: > 200 µM | IC50: 182 µM

O=C(NNC(=O)c1nsc2ccccc12)c1ccc(Cl)cc1
EC50: > 8.13 µM | IC50: > 8.13 µM

CC1=CC(=O)N2C(OC[C@@H]2c2ccccc2)O1 (stereo partly specified)
EC50: > 562 µM | IC50: > 562 µM

Cc1ccc(S(=O)(=O)N2CCN(S(=O)(=O)c3ccc(C)cc3)Cc3ccccc3C2)cc1
EC50: > 200 µM | IC50: > 200 µM

N#CCOc1ccc(/C=C/C(=O)c2ccc(Cl)cc2)cc1
EC50: > 200 µM | IC50: 17.4 µM

Cc1cc(Nc2ccc(S(=O)(=O)O)cc2)c2ccccc2n1
EC50: > 200 µM | IC50: > 200 µM

O=c1oc2ccccc2n1P(=O)(N1CCOCC1)N1CCOCC1
EC50: > 251 µM | IC50: > 251 µM

COC(=O)c1nc(N)[nH]c(=O)c1-c1ccc(Cl)cc1
EC50: 251 µM | IC50: 891 µM

CC(C)CC(NC(=O)C(CCC(=O)OCc1ccccc1)NC(=O)OC(C)(C)C)C(=O)NC(COCc1ccccc1)C(=O)NC(Cc1ccccc1)C(=O)O (stereo unspecified) (Boc-E(OBn)LS(Bn)F-OH; configuration not given here)
EC50: > 200 µM | IC50: > 200 µM

O=S(=O)(O)c1ccc(OCCCCCCCCOc2ccc(S(=O)(=O)O)cc2)cc1
EC50: > 14.5 µM | IC50: > 14.5 µM

O=C1OC2C3Cc4ccccc4N2C1C3 (stereo unspecified)
EC50: > 646 µM | IC50: 363 µM

S=C1NC(c2ccccc2)Nc2ccccc21 (stereo unspecified)
EC50: > 107 µM | IC50: > 107 µM

Cc1cccc2[nH]c3cc(O)cc(O)c3c(=O)c12
EC50: > 200 µM | IC50: 10.5 µM

CC1=NNC(=O)C1
EC50: > 200 µM | IC50: 66.1 µM

Cc1cc(Cl)n2nc(-c3ccc(Cl)cc3)nc2n1
EC50: > 49 µM | IC50: > 49 µM

CCCCCCCCNC(=O)/C(=C\c1ccc(/C=C(/NC(=O)c2ccccc2)C(=O)NCCCCCCCC)cc1)NC(=O)c1ccccc1
EC50: > 100 µM | IC50: 23.4 µM

CN(/N=C/c1ccc(Cl)c(Cl)c1)C1=NCCCCN1
EC50: > 200 µM | IC50: 26.3 µM

NC1CC(=O)c2sc(I)cc21 (stereo unspecified)
EC50: > 200 µM | IC50: 102 µM

Cc1cc(NS(=O)(=O)c2ccc(N=Nc3cc(N=Nc4ccc(S(=O)(=O)Nc5cc(C)nc(C)n5)cc4)c4c(NC(=O)C(Cl)Cl)cccc4c3OC(=O)C(Cl)Cl)cc2)nc(C)n1 (tested in a mixture with another compound)
outcome: inactive

C/C(=C\c1ccccn1)c1ccccn1
EC50: > 200 µM | IC50: > 200 µM

c1ccc(C2=NOC(c3ccccc3)N2C23CC4CC(CC(C4)C2)C3)cc1 (stereo unspecified)
EC50: > 200 µM | IC50: > 200 µM

C/C=C1\CN2CCC34c5ccccc5N5C(=O)CCC(C1CC23)C54 (stereo unspecified)
EC50: > 42.7 µM | IC50: > 42.7 µM

Cc1cnc2c(c1)C(=O)N(c1ccc(Oc3ccccc3)cc1)S2(=O)=O
EC50: > 200 µM | IC50: > 200 µM

COc1cc(OC)cc(-n2c(N)c(C#N)c3ccc([N+](=O)[O-])cc3c2=O)c1
EC50: > 200 µM | IC50: > 200 µM

Cc1ccc2oc(=O)ccc2c1
EC50: > 427 µM | IC50: 174 µM

CC(=O)/C(=C/c1cccc(Cl)c1)C(=O)c1ccccc1
EC50: > 34.7 µM | IC50: 17 µM

CCCCc1ccc(Nc2nc(Cl)c3[nH]cnc3n2)cc1
EC50: > 200 µM | IC50: 26.3 µM

CCOC(=O)CCCNC(=O)c1ccccc1SC(=O)CCCC[n+]1ccccc1
EC50: > 2 µM | IC50: 0.912 µM

Cc1cc(-c2no[n+]([O-])c2-c2cc(C)sc2S(C)(=O)=O)c(S(C)(=O)=O)s1
EC50: > 200 µM | IC50: > 200 µM

COc1ccc(C(=O)Oc2c(C#N)sc3c2c(=O)n(-c2ccccc2)c(=S)n3-c2ccccc2)cc1
EC50: > 200 µM | IC50: 5.13 µM

CC(=O)N1N=C(c2c(O)ccc3ccccc23)CC1c1ccc(Cl)cc1 (stereo unspecified)
EC50: > 200 µM | IC50: 25.1 µM

C/C=C1\CN(C(=O)OC(C)(C)C)C1C(=O)OC(C)(C)C (stereo unspecified)
EC50: > 200 µM | IC50: 85.1 µM

COc1ccc(N=C2SCC(=O)N2NC(=O)CN2C(=O)c3ccccc3C2=O)cc1
EC50: > 20.4 µM | IC50: 17.4 µM

N#Cc1c(-c2ccccc2)c(C#N)c(=S)n(C2OCC(O)C(O)C2O)c1N (stereo unspecified)
EC50: > 200 µM | IC50: 195 µM and > 200 µM

Cc1ccc(N(C(=O)Nc2ccc(F)c(Cl)c2)C2=NCC(C)S2)cc1 (stereo unspecified)
EC50: > 200 µM | IC50: 186 µM

CC1C2CC(C/C2=N/O)C1(C)C (stereo unspecified)
EC50: > 1480 µM | IC50: 437 µM

Cc1cc(OCc2nnc3n2S(=O)(=O)c2ccccc2N3C)ccc1Cl
EC50: > 200 µM | IC50: > 200 µM

CC(C)(C)C(=O)C1CC(=O)c2ccccc2C1=O (stereo unspecified)
EC50: > 29.5 µM | IC50: > 29.5 µM

COc1cc2c(cc1OC)C1C=NC(C(=O)O)(C2)c2ccccc21 (stereo unspecified)
outcome: inactive

CSC1=C(C(=O)Nc2ccccc2)C(N)=NC1=O
EC50: > 200 µM | IC50: 141 µM

O=C1NC(Cc2ccc([N+](=O)[O-])cc2)C(=O)N2CCCC12 (stereo unspecified)
EC50: > 200 µM | IC50: > 200 µM

N#C/C(c1nc2ccccc2[nH]1)=c1\s/c(=C/c2ccccc2)c(=O)n1-c1ccccc1
EC50: > 200 µM | IC50: > 200 µM

CC(C(=O)OCc1ccccc1)(c1ccco1)N1C(=O)OC(c2ccccc2)C1c1ccccc1 (stereo unspecified)
EC50: > 200 µM | IC50: 13.5 µM

CC(=O)NC1=NC(=O)/C(=C/c2ccc(Cl)cc2Cl)N1C
outcome: inactive

CC(=O)OC(C(=O)C(O)C(C)C)C(C)C (stereo unspecified)
EC50: > 832 µM | IC50: > 832 µM

CCCCCCCCCCCCSCC12c3ccccc3C(c3ccccc31)C(C(=O)O)C2C(=O)O (stereo unspecified)
EC50: > 200 µM | IC50: 22.4 µM

CCOC(=O)C(Cc1cccc2ccccc12)S(=O)(=O)c1ccc(C)cc1 (stereo unspecified)
EC50: > 66.1 µM | IC50: 18.6 µM

COC(=O)/C=C/C(=O)/C=C/COC(=O)c1ccccc1
EC50: > 95.5 µM | IC50: 61.7 µM

CCOC(=O)c1nc2ccc(Cl)cc2c2c1CCO2
EC50: > 5.25 µM | IC50: > 5.25 µM

[N-]=[N+]=Nc1cc(=O)[nH]c2ccccc12
EC50: > 200 µM | IC50: > 200 µM

Cc1cc(Cl)ccc1NC(=O)C1C(=O)N(c2ccc(Cl)cc2C)C(=O)/C1=N\NC(N)=S (stereo unspecified)
EC50: > 11 µM | IC50: > 11 µM

O=C(NC1CCCCC1)/C(=C\c1ccc2c(c1)OCO2)NC(=O)c1ccccc1
EC50: > 200 µM | IC50: > 200 µM

CC(=O)N(CN1C(=O)CCC1C(=O)O)c1ccc(C)cc1 (stereo unspecified)
outcome: inactive

Cc1cccc(C)c1NC(=O)CCC(=O)CC(=O)C(C)C
EC50: > 123 µM | IC50: > 123 µM

NC1CC(n2ccc(=O)[nH]c2=O)OC1C(O)CO (stereo unspecified)
EC50: > 100 µM | IC50: > 100 µM

CCC(CCN)(CCN)[N+](=O)[O-]
EC50: > 200 µM | IC50: > 200 µM

CC(=O)C(CN1CCCCC1)C(c1ccccc1)c1c(O)c2ccccc2oc1=O (stereo unspecified)
EC50: > 120 µM | IC50: 117 µM

O=C(O)c1cc(C(=CCC23CC4CC(CC(C4)C2)C3)c2cc(Cl)c(O)c(C(=O)O)c2)cc(Cl)c1O
EC50: > 200 µM | IC50: 105 µM

O=C1CC(c2c[nH]c3ccccc23)C(=O)N1 (stereo unspecified)
outcome: inactive

CCOC(=O)NC(C(F)(F)F)(C(F)(F)F)P(=O)(OCC)OCC
EC50: > 200 µM | IC50: 11.5 µM

CCC1=CC(OCc2ccccc2)C(CCN(Cc2ccccc2)C(=O)OCc2ccccc2)C1 (stereo unspecified)
EC50: > 200 µM | IC50: 9.55 µM

CC(=S)N/C=C/c1c(C(=O)O)cc([N+](=O)[O-])cc1[N+](=O)[O-]
outcome: inactive

CCCCCCCCCC(=O)Oc1c2ccoc2cc2oc(=O)ccc12
EC50: > 63.1 µM | IC50: > 63.1 µM

Cc1nc(C)c(N2CCN(Cc3ccccc3)CC2)c(=O)[nH]1
EC50: > 200 µM | IC50: > 200 µM

O=C1CCC2(CC(Br)C(=O)c3ccccc32)C(=O)N1 (stereo unspecified)
EC50: > 407 µM | IC50: 81.3 µM

COc1ccc(/C(=N/O)c2ccccc2-c2nc3ccccc3c(=O)n2-c2ccc(S(=O)(=O)Nc3nccs3)cc2)cc1C
EC50: > 50.1 µM | IC50: > 50.1 µM

COc1cc(C)cc2c1C(=O)C(Br)=CC2=O
EC50: > 200 µM | IC50: 1.95 µM

O=S1(=O)CC2(N3CCCCC3)CCCCC21 (stereo unspecified)
EC50: > 891 µM | IC50: 219 µM

COc1ccc2[nH]c3c(c2c1)CC(=S)N1CCCC(CC3=O)C1 (stereo unspecified)
EC50: > 200 µM | IC50: 61.7 µM

O=c1oc2c(ccc3occc32)c(N2CCCCC2)c1-c1ccccc1
outcome: inactive

Cc1cnc(SCCN(C)C)nc1-c1ccc(-c2nc(SCCN(C)C)ncc2C)s1
EC50: > 13.5 µM | IC50: 12.6 µM

O=C(NCCCCCCCCCCNC(=O)c1cc(O)c(O)c(O)c1)c1cc(O)c(O)c(O)c1
EC50: > 100 µM | IC50: 9.12 µM

O=C(Nc1ccc(F)c(Cl)c1)Nc1cc(Cl)ccc1SSc1ccc(Cl)cc1NC(=O)Nc1ccc(F)c(Cl)c1
EC50: > 66.1 µM | IC50: 11.7 µM

Cc1cccc(N2C(=O)C3c4[nH]c5ccccc5c4C4CCC(C(C)(C)C)CC4C3C2=O)c1C (stereo unspecified)
EC50: > 200 µM | IC50: 22.9 µM

COc1ccc2[nH]c3c(c2c1)CCc1c(OC)cccc1-3
EC50: > 200 µM | IC50: 178 µM

O=C1Nc2ccccc2Nc2nc3cccccc-3c21
EC50: > 100 µM | IC50: > 100 µM

CCC1(O)C(=O)OCc2c1cc1n(c2=O)Cc2cc3ccc(CO)cc3nc2-1 (stereo unspecified)
EC50: > 10 µM | IC50: 1.51 µM

O=S(=O)(SCCCCSS(=O)(=O)c1ccc(Cl)cc1)c1ccc(Cl)cc1
EC50: 8.13 µM | IC50: 9.55 µM

Cn1c(C(=O)/C=C/c2ccc([N+](=O)[O-])cc2)nc2ccccc21
EC50: > 200 µM | IC50: 33.1 µM

O=C(Nc1nc2ccccc2[nH]1)C(=O)NC12CC3CC(CC(C3)C1)C2
outcome: inactive
